According to ChEMBL document CHEMBL3885881, “DrugMatrix”:

Species on record: Rattus norvegicus
Format: toxicity, organism-based, Sprague-Dawley
Details: in vivo, iv, 0 mg/kg, 24 h, vehicle control, dose level Control, time 1 day, vehicle 100 % SALINE
Description: DrugMatrix - Regimen: Single

**Q.** Which results are given for `CC(=O)[C@]1(O)Cc2c(O)c3c(c(O)c2[C@@H](O[C@H]2C[C@H](N)[C@H](O)[C@H](C)O2)C1)C(=O)c1ccccc1C3=O` [IDARUBICIN]?
**A.** ABSOLUTE BASOPHIL (tissue Blood): 280 cells/µL; ABSOLUTE EOSINOPHIL (tissue Blood): 75 cells/µL; ABSOLUTE LYMPHOCYTE (tissue Blood): 9060 cells/µL; ABSOLUTE MONOCYTE (tissue Blood): 260 cells/µL; BASOPHIL (tissue Blood): 2.17%; EOSINOPHIL (tissue Blood): 0.62%; ERYTHROCYTE COUNT (tissue Blood): 6.64 x10E6/uL; HEMATOCRIT (tissue Blood): 42.6%; HEMOGLOBIN (tissue Blood): 13.5 G/DL; LEUKOCYTE COUNT (tissue Blood): 11.87 x10E3/uL; LYMPHOCYTE (tissue Blood): 76.3%; MEAN CORPUSCULAR HEMOGLOBIN (tissue Blood): 20.37 pg; MEAN CORPUSCULAR HEMOGLOBIN CONCENTRATION (tissue Blood): 31.75 G/DL; MEAN CORPUSCULAR VOLUME (tissue Blood): 64.17 fL; MONOCYTE (tissue Blood): 2.1%; NEUTROPHIL (tissue Blood): 16.75%; PLATELET COUNT (tissue Blood): 1144.5 x10E3/uL; ALANINE AMINOTRANSFERASE (tissue Plasma): 42.75 u/L; ALBUMIN (tissue Plasma): 3.6 G/DL; ALKALINE PHOSPHATASE (tissue Plasma): 314.75 u/L; ASPARTATE AMINOTRANSFERASE (tissue Plasma): 66.5 u/L; BLOOD UREA NITROGEN (tissue Plasma): 14 mg/dL; CARBON DIOXIDE (tissue Plasma): 37.5 mmol/L; CHLORIDE (tissue Plasma): 108 MEQ/L; CHOLESTEROL (tissue Plasma): 74.25 mg/dL; CREATINE PHOSPHOKINASE (tissue Plasma): 271 u/L; CREATININE (tissue Plasma): 0.65 mg/dL; GLUCOSE (tissue Plasma): 171 mg/dL; LACTATE DEHYDROGENASE (tissue Plasma): 125.75 u/L; LIPASE (tissue Plasma): 27.5 u/L; PHOSPHORUS (tissue Plasma): 11.25 mg/dL; POTASSIUM (tissue Plasma): 6.72 MEQ/L; SODIUM (tissue Plasma): 153.5 MEQ/L; TOTAL BILIRUBIN (tissue Plasma): 0.23 mg/dL; TOTAL PROTEIN (tissue Plasma): 6.2 G/DL; URIC ACID (tissue Plasma): 0.85 mg/dL
